T1: CD19 (human, UniProt P15391 20-556)
T1 sequence (looked up): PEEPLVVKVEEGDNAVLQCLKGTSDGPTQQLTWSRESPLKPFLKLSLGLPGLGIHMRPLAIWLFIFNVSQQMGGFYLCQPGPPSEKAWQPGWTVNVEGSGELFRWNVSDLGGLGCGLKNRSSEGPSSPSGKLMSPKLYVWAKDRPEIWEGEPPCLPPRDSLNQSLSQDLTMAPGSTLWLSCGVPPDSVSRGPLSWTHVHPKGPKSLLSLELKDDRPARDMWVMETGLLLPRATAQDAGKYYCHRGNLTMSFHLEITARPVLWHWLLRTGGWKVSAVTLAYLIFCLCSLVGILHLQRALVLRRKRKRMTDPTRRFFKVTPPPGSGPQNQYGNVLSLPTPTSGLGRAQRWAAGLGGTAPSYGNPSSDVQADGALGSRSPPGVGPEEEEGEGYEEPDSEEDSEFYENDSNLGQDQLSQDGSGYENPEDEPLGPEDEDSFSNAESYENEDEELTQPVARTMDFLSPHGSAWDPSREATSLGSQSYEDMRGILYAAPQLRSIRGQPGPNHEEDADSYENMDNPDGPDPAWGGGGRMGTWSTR


Legend:
[1] = tested on: myelodysplastic syndromes (MDS) patients; details: cited from earlier work
CD19 = target: T1, CD19; test: cell-based or functional assay
[2] = patients with a del(5q) chromosomal abnormality

Row | Median IC50, MTT proliferation assay, 96 h exposure, 48 B-cell lymphoma lines (CD19) [pM] | Molecule | Adverse events ([1]; MDS patients) | transfusion independence or a reduction of at least 50% of pre-treatment RBC transfusion levels ([1]; non-del(5q) patients with confirmed low- and intermediate-1 risk) | complete cytogenetic remission [1, 2] | minor cytogenetic remission [1, 2] [%] | red blood cell (RBC) transfusion independence [1, 2]
1 | – | Nc1cccc2c1CN(C1CCC(=O)NC1=O)C2=O (racemic) [Lenalidomide, 3-(7-amino-3-oxo-1H-isoindol-2-yl)piperidine-2,6-dione] | neutropenia and thrombocytopenia, pruritus, rash, diarrhea | 43 % of patients | 45 % of patients | 28 | 67 % of patients
2 | 4 | ADCx19 (antibody, V domains shown) VH: QVQLVQPGAEVVKPGASVKLSCKTSGYTFTSNWMHWVKQAPGQGLEWIGEIDPSDSYTNYNQNFQGKAKLTVDKSTSTAYMEVSSLRSDDTAVYYCARGSNPYYYAMDYWGQGTSVTVS VL: EIVLTQSPAIMSASPGERVTMTCSASSGVNYMHWYQQKPGTSPRRWIYDTSKLASGVPARFSGSGSGTSYSLTISSMEPEDAATYYCHQRGSYTFGGGTKLEIK | – | – | – | – | –

Source: patent publication US20220305132A1, “COMBINATION THERAPY COMPRISING AN ANTI-CD19 ANTIBODY DRUG CONJUGATE AND A PI3K INHIBITOR OR A SECONDARY AGENT” (ADC THERAPEUTICS SA, priority 2019, published 2022)
